This is an account of results in PMC6148290, “Endogenous metabolites of vitamin E limit inflammation by targeting 5-lipoxygenase” (Nature Communications, 2018).

Molecules are shown by their SMILES. pIC50: −log10 of the molar value. Like-named read-outs stand apart in the source and are kept apart here.

Series [1] concerns the target T1, human recombinant soluble epoxide hydrolase (sEH) (Homo sapiens, UniProt P34913).
T1 construct: made in house; host or cells: Sf9 insect cells (recombinant baculovirus)
T1 sequence (P34913 1-555): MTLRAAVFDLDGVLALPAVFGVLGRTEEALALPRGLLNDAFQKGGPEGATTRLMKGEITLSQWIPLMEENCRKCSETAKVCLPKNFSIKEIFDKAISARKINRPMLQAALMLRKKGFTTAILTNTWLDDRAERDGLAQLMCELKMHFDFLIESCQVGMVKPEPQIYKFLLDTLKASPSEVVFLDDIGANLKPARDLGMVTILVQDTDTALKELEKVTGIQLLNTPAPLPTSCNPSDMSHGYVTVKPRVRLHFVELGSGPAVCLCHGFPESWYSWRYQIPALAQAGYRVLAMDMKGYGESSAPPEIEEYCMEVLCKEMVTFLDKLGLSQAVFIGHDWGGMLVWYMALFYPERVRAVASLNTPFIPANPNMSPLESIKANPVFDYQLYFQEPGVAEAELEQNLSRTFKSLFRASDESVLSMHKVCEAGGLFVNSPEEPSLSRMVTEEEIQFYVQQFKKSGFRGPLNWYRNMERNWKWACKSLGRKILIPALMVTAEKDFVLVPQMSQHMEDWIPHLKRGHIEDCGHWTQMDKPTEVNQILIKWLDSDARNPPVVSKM
Briefly: sEH activity. The series is classed as biochemical. The method, then: To investigate the effect of LCMs on sEH activity, we purified the human recombinant enzyme from sEH expressing Sf9 insect cells by benzylthio-sepharose affinity chromatography. […] The purified enzyme (60 ng) was diluted in 25 mM Tris HCl, pH 7 plus 0.1 mg/ml BSA and pre-incubated with LCMs for 10 min at room temperature. The enzymatic reaction was started by addition of PHOME (50 µM, Cayman Chemicals), which was converted to the fluorescent 6-methoxy-naphtaldehyde.

Series [2] relates to peripheral blood mononuclear cells. Briefly: Cell viability of PBMC (MTT assay). To be noted: at 1 and 10 µM (one entry for both); 24 h; n.i. no inhibition. The series is classed as cell-based, human. How it is done: The formazan product was solubilized with SDS (10% in 20 mM HCl), and absorbance was measured at 570 nm using a Multiskan Spectrum microplate reader (Thermo Fisher Scientific).

Series [3] is described as follows: LCM concentrations in plasma and peritoneal exudate of mice with peritonitis (UPLC-MS/MS). The series is classed as in vivo. As to conditions: CD-1, mouse; for concentration at 240 min: ip, 10 mg/kg i.p., 240 min post zymosan. The method, then: Mice were killed by inhalation of CO2 after another 30 min for determination of LTC4 levels and vascular permeability and after 4 h for the analysis of LTB4 levels, lipidomic profiles and immune cell infiltration. Cell infiltration and lipid mediator profiles during resolution were studied after 18 h. Peritoneal exudates were collected and cells counted after vital trypan blue staining. LTC4, LTB4, and PGE2 were analyzed in the exudate by enzyme immunoassays (Enzo Life Sciences, Lörrach, Germany) according to manufacturer's instructions. To assess vascular permeability, Evans blue dye (40 mg/kg in saline, 0.3 ml; Sigma-Aldrich) was injected into the tail vain immediately before the induction of peritonitis. Exudates were centrifuged (3000 × g, 5 min) and the absorbance of the supernatants was measured at 610 nm using a Beckman Coulter DU730 spectrophotometer. To investigate the effect of α-T (1a) on the accumulation of α-T-13'-COOH (4a) in infiltrated leukocytes after peritonitis has been established, vehicle or α-[…].) were given 1 h before and/or 4 h post zymosan injection, and mice were killed after another 1.5 h. Leukocytes were obtained from peritoneal exudates by centrifugation (1200 × g, 10 min, 4 °C). Lipids, including LCMs, were extracted from PMNL, murine peritoneal exudates or murine plasma by successive addition of PBS pH 7.4, methanol, chloroform and saline (final ratio: 14:34:35:17)[68]. […] Multiple reaction monitoring was used to detect LCMs in the negative ion mode. The precursor-to-product ion transitions were selected according to Jiang et al.[69] and are listed in Supplementary Table 3. The ion spray voltage was set to -4500 V, the heated capillary temperature to 450 °C, the sheath gas pressure to 50 psi, the auxiliary gas pressure to 40 psi, and the declustering potential to 80 eV (for Ts) or 110 eV (for TEs). Collision energies and lower limits of quantitation are listed in Supplementary Table 3.

A further series concerns the target T2, COX-2 (Homo sapiens, UniProt P35354).
T2 sequence (P35354 18-604): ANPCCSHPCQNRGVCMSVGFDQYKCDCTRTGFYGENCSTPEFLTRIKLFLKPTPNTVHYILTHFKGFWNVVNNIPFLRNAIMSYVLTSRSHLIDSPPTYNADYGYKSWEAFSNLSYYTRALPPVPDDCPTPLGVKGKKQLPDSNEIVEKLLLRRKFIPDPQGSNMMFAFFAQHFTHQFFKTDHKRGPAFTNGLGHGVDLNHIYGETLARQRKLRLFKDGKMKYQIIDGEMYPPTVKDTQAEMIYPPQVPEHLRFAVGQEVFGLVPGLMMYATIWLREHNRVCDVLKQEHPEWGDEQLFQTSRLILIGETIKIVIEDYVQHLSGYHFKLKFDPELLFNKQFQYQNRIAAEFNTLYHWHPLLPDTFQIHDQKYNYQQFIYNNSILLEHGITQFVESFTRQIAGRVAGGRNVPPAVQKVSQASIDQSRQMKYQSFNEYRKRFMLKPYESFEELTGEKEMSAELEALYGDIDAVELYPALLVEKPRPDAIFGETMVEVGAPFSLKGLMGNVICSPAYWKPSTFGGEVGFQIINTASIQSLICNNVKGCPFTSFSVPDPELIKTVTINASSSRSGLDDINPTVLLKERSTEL
The experiment in a line: COX-2-dependent PGE2 formation in LPS-activated monocytes. It counts as cell-based. Set-up: endogenous in cells; host or cells: human monocytes, LPS-stimulated for 24 h. To be noted: up to 10 µM. The method, then: Cells were washed and medium was exchanged. Freshly isolated PMNL (1 × 10^7) and stably transfected HEK-293 (1 × 10^6) cells were suspended in PBS pH 7.4 containing 1 mg/ml glucose and 1 mM CaCl2. […] A23187- and A23187/AA-treated PMNL and A23187/AA-treated HEK-293 (5-LO_wt), HEK-293 (5-LO_3W) and HEK-293 (5-LO_Arg101Asp) cells produced 135 ± 21, 636 ± 112, 300 ± 59, 133 ± 29, 55 ± 9 ng 5-LO products, respectively. PMNL synthesized 29 ± 6 ng 12-HETE and 97 ± 23 ng 15-HETE when challenged with A23187/AA. 5-LO products from monocytes were analyzed by UPLC-MS/MS.
LPS-activated monocytes were treated with A23187 (2.5 µM) and AA (20 µM) to induce lipid mediator biosynthesis as described for LO product formation. Human blood was pre-incubated with vehicle (DMSO) or α-T-13′-COOH (4a, 100 nM) for 10 min, primed with LPS (1 µg/ml) for 30 min and stimulated with N-formyl-methionyl-leucyl-phenylalanine (fMLP, Sigma-Aldrich; 1 µM) for 15 min at 37 °C.

For the compound `Cc1c(C)c2c(c(C)c1O)CC[C@@](C)(CCCC(C)CCCC(C)CCCC(C)C(=O)O)O2` (stereo partly drawn) [4a, 13-((2R)-6-hydroxy-2,5,7,8-tetramethylchroman-2-yl)-2,6,10-trimethyltridecanoic acid], the negative logarithm of the IC50 (pIC50) in series [1] was less than 5.00. Further, the “Cell viability/peripheral blood mononuclear cells, residual viability” value in series [2] is given as “n.i”. The concentration at 30 min in series [3] (peritoneal exudate, endogenous, 30 min post zymosan injection, read-out: α-T-13′-COOH (4a) concentration in peritoneal exudate) was no more than 200 nM. Moreover, the concentration at 240 min was found to be 3900 nM in series [3] (peritoneal exudate, read-out: α-T-13′-COOH (4a) concentration in peritoneal exudate) and 1400 nM in series [3] (plasma, read-out: α-T-13′-COOH (4a) concentration in plasma). Besides, the “inhibition of COX-2-dependent PGE2 formation in activated human monocytes” value at COX-2 is “not inhibited”.
